A short description of series [1]: In vivo pharmacokinetics of polymethine dyes (organ-specific clearance by liver and kidneys). Also noted: species or system male Wistar rats. Conditions: i.v., rats. The protocol: Catheters were placed in the jugular vein, carotid artery, bladder and bile duct of male Wistar rats (300–400 g body weight (BW)). After i.v. administration of DY-635 (13 pmol per g BW), DY-630 (13 pmol per g BW), DY-750 (13 pmol per gBW), DY-751 (13 pmol per g BW), DY-731 (13 pmol per g BW), DY-777 (14 pmol per g BW), DY-682 (13 pmol per g BW), DY-704 (17 pmol per g BW), DY-732 (13 pmol per g BW), DY-754 (17 pmol per g BW), DY-678 (14 pmol per g BW), DY-778 (14 pmol per g BW) or 6.5 μg DY625-[NP] per g BW, bile was collected every 5 min and 200 μl arterial blood taken at defined times into heparinised tubes. DY-635 fluorescence in bile and plasma was measured in a spectrofluorometer (FluoStar Optima, BMG Labtech). Results are mean±s.e.m. of three biological replicates.

The next series addresses T1, OATP1B1 (Homo sapiens, UniProt Q9Y6L6).
T1 construct: expressed in transfected cells; host or cells: HEK293 (pcDNA5 vector)
T1 sequence (Q9Y6L6 1-691): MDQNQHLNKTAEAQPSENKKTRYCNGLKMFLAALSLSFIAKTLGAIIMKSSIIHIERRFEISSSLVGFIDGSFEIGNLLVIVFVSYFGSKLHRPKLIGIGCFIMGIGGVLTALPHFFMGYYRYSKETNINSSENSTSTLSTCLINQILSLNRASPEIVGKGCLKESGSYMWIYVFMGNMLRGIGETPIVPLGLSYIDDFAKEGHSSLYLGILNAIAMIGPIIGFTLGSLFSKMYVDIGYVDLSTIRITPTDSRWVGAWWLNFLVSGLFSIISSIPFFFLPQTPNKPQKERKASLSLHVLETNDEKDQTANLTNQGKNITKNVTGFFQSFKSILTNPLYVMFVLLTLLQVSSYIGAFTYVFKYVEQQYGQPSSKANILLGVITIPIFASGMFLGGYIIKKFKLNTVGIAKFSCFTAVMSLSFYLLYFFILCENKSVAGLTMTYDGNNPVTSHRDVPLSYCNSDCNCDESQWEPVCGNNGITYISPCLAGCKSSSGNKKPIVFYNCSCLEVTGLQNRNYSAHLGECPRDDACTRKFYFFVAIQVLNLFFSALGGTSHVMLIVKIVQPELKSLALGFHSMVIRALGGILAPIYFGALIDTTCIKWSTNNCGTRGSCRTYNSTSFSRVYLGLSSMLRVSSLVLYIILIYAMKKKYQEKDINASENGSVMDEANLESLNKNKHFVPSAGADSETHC
Nature of the series: DY-635 interaction with hepatic basolateral transporters, transfected HEK293 cells, radio-labelled substrate uptake. It counts as cell-based. Conditions: 10 μM DY-635 vs rifampicin 20 μM; substrate [3H]estrone-sulfate 30 nM; transfected HEK cells. The protocol:
(§1) HEK293 cells were transfected with OATP1B1 (SLCO1B1, NM_006446), OATP1B3 (SLCO1B3, NM_019844), OCT1 (SLC22A1, NM_003057.2), OAT2 (SLC22A7, NM_006672), NTCP (SLC10A1, NM_003049), NaDC3 (SLC13A3, AF154121) or the empty vector (pcDNA5).Transfected HEK293 cells were seeded at 2 × 10^5 cells per well and cultured for 3 days.

For a further series, the target named is T2, OATP1B3 (Homo sapiens, UniProt Q9NPD5).
T2 construct: expressed in transfected cells; host or cells: HEK293 (pcDNA5 vector)
T2 sequence (Q9NPD5 1-702): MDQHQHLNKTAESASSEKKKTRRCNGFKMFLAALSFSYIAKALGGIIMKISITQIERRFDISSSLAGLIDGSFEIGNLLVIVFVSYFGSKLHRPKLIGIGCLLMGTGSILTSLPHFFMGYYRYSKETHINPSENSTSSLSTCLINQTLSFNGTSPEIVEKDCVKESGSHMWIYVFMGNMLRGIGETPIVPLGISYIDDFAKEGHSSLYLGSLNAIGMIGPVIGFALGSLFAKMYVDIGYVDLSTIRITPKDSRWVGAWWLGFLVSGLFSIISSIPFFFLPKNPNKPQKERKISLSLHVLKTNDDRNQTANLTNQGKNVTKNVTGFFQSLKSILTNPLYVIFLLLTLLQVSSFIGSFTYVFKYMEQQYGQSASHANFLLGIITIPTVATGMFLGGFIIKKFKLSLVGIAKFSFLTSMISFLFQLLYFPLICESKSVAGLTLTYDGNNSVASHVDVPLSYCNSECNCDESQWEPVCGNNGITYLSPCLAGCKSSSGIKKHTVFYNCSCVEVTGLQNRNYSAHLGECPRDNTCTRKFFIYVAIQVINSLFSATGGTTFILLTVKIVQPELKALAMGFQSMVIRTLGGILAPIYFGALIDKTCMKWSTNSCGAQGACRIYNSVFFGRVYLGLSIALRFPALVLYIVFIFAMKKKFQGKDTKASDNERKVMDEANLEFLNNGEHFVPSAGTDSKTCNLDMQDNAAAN
Described as above. It is filed as cell-based. The settings on record: 10 μM DY-635 vs rifampicin 20 μM; substrate [3H]sulfobromphthalein 50 nM; transfected HEK cells. As for the experimental part: as §1

A further series concerns the target T3, NTCP (Homo sapiens, UniProt Q14973).
T3 construct: expressed in transfected cells; host or cells: HEK293 (pcDNA5 vector)
T3 sequence (Q14973 1-349): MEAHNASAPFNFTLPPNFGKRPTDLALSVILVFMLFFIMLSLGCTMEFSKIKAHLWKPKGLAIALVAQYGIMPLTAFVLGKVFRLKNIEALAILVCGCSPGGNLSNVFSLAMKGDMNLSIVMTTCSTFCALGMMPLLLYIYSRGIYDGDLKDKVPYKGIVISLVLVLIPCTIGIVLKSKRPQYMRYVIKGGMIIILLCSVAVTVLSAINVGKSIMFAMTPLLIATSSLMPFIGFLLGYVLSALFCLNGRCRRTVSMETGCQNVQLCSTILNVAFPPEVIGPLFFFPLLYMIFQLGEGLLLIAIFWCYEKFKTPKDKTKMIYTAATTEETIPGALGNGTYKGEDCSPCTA
The series is described as above. Conditions: 10 μM DY-635; substrate [3H]estrone-sulfate 10 μM; transfected HEK cells. It counts as cell-based. The protocol: as §1

Another series deals with liver parenchyma. Nature of the series: Intravital microscopy of liver (fluorescence decay, cellular association). The settings on record: Cy5 channel, after injection. It is filed as in vivo, male FVB/NRj mice. As for the experimental part: IVM was performed using an inverted epifluorescence microscope (AxioObserverR Z1; Zeiss) as described previously.
For series [2], the system named is primary murine hepatocytes. Nature of the series: Uptake of free DY-635 by primary hepatocytes, with and without cyclosporine A. It counts as cell-based, mouse. Conditions: 37 or 4 °C.
Method: This was then diluted 1:1 (v/v) with either 400 nM DY-635 (amino-terminated) or 10 μg NP in KHB. […] Lysates were analysed on a Tecan plate reader (Tecan) (excitation: 488±09 nm, emission 530±20 nm). […] Data were normalised to cellular protein (Bradford).
A further series concerns HepaRG and HUVEC cells. Description: Microfluidic-assisted organoid, co-culture of HepaRG and HUVEC, nanoparticle uptake. It counts as cell-based, human.

This note sets out measurements from article PMC4268698, “Cell type-specific delivery of short interfering RNAs by dye-functionalised theranostic nanoparticles” (Nature Communications, 2014).

“Also recorded” adds a separate entry of the source.

Method for HepaRG and HUVEC cells: HUVEC and HepaRG cells were co-cultured using a microfluidic-supported chip. […] 2.7 × 10^4 cells per cm^2 were seeded in William’s E medium supplemented with 10% foetal bovine serum, 100 U ml^−1 penicillin, 100 g ml^−1 streptomycin, 5 U ml^−1 insulin and 5 × 10^−5 M hydrocortisone-hemisuccinate and cultured for 2 weeks. For HepaRG differentiation, cells were cultured with 2% dimethylsulfoxide for two more weeks. Differentiated HepaRG cells were seeded at 4,000 cells per mm^2 at the bottom of the chip cavities beneath the membrane. 300,000 HUVEC (4,300 cells per mm^2) were seeded above the membrane and co-cultured with differentiated HepaRG cells in for 24 h before the uptake experiments. Cells were perfused with 50 μg ml^−1 NPs in Williams E medium. […] For each time point three pictures were taken and 200 region of interest (ROI) per picture were analysed.

Consider `CC(C)(C)c1cc(/C=C/C=C2/N(CCCCCC(=O)NCCN)c3ccc(S(=O)(=O)O)cc3C2(C)C)c2cc3c4c(c2[o+]1)CCCN4CCC3` [DY-635], for which, in series [1], the “route of elimination (net organ-specific clearance)” value is reported as “excreted preferentially via the bile; also recorded: preferential hepatobiliary clearance”. For the same compound, the “affinity to OATP1B1 compared with FDA-proposed competitor” value at OATP1B1 was “substantially exceeded that of the Food and Drug Administration (FDA) proposed ligand for drug development, rifampicin”. The “affinity to OATP1B3 compared with FDA-proposed competitor” value at OATP1B3 is “substantially exceeded that of the Food and Drug Administration (FDA) proposed ligand for drug development, rifampicin”. The “affinity to NTCP” value on NTCP is reported as “moderate affinity”. Besides, in the series with liver parenchyma, the “fluorescence decay over liver parenchyma” value is given as “exponential decay”. The “uptake of DY-635 by primary hepatocytes” value in series [2] is listed as “rapid, temperature sensitive”.
On to `O=C1NC(=NS(=O)(=O)c2cccc3ccccc23)S/C1=C\c1ccc(Br)cc1` [Pitstop-2], for which the “effect on uptake of DY-635[NP](−)” value in the series on HepaRG and HUVEC cells was “inhibition of NP uptake”.
